Data on one compound can be found in US8729014B2, “Specific HCV NS3 protease inhibitors” (RFS Pharma, LLC, priority 2010, dated 2014).

pEC50: −log10 of the molar value.

The test system of assay [1] is Hepatitis C Virus NS3/4A protease V170A. The class given is biochemical. Conditions: V170A vs Wild Type.
In assay [2] the target is T1, Hepatitis C Virus NS3/4A protease V170A (UniProt Q9WMX2, V1196A, species not given).
T1 construct: other: V170A; Anti-HCV protease activity EC90
The class given is biochemical. Conditions: V170A.

For assay [3], the target named is Hepatitis C Virus NS3/4A protease D168V (Hepatitis C virus genotype 1b, UniProt O92972, D1194V). Nature of the assay: biochemical.
Chain of Hepatitis C Virus NS3/4A protease D168V (Hepatitis C virus genotype 1b, UniProt O92972, D1194V) (O92972 1027-1657 D1194V): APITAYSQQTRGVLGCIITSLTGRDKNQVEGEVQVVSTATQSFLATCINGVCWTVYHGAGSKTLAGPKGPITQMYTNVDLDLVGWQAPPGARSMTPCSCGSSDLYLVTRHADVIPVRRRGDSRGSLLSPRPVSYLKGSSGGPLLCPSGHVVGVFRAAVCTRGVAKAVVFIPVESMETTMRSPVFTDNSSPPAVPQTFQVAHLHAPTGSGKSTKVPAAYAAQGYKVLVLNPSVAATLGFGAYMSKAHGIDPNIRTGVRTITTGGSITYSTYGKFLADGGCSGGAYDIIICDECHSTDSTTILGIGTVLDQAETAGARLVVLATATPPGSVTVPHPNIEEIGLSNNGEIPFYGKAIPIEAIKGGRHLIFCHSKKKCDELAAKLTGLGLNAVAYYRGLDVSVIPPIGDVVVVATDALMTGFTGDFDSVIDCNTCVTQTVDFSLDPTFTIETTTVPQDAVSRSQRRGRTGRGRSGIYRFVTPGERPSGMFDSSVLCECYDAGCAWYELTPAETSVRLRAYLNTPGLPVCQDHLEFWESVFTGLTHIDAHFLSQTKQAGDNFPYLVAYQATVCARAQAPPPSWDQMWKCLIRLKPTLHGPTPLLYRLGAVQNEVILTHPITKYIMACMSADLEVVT
Chain of Hepatitis C Virus NS3/4A protease D168V (Hepatitis C virus genotype 1b, UniProt O92972, D1194V) (O92972 1658-1711 partner limits assumed): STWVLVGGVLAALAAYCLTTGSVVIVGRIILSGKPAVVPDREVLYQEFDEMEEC
Assay [4] concerns Hepatitis C Virus NS3/4A protease D168V. Nature of the assay: biochemical. Conditions: D168V vs Wild Type.
The target in assay [5] is Hepatitis C Virus NS3/4A protease V36M (Hepatitis C virus genotype 1b, UniProt O92972, V1062M). Nature of the assay: HCV NS3/4A protease FRET assay, V36M. In kind it is biochemical.
Chain of Hepatitis C Virus NS3/4A protease V36M (O92972 1027-1657 V1062M): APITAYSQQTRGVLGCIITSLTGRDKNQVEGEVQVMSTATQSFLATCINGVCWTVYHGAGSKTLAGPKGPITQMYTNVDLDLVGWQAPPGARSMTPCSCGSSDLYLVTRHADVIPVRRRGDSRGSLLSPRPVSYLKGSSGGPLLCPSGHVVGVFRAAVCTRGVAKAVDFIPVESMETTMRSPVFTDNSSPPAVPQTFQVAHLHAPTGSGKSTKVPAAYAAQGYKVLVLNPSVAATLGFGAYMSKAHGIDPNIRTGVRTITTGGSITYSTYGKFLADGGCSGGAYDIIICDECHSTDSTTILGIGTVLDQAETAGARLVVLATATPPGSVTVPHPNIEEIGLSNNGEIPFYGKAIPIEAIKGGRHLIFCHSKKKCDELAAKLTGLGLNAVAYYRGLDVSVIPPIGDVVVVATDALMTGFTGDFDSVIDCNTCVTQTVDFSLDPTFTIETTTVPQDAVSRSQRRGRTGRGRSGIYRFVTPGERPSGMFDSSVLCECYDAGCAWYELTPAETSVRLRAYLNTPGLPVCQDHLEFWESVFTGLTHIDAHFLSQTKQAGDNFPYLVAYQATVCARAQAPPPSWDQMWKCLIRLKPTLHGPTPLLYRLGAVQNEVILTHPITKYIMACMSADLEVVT
Chain of Hepatitis C Virus NS3/4A protease V36M (O92972 1658-1711 partner limits assumed): as the sequence (O92972 1658-1711 partner limits assumed) above
In assay [6] the target is Hepatitis C Virus NS3/4A protease Wild Type (Hepatitis C virus genotype 1b, UniProt O92972). Nature of the assay: HCV NS3/4A protease FRET assay, wild type. In kind it is biochemical. As for the experimental part: The HCV NS3/4A protease assays were carried out using a SensoLyte® 490 HCV Protease Assay Kit using fluorescence resonance energy transfer (FRET) peptide (AnaSpec).
Chain of Hepatitis C Virus NS3/4A protease Wild Type (O92972 1027-1657): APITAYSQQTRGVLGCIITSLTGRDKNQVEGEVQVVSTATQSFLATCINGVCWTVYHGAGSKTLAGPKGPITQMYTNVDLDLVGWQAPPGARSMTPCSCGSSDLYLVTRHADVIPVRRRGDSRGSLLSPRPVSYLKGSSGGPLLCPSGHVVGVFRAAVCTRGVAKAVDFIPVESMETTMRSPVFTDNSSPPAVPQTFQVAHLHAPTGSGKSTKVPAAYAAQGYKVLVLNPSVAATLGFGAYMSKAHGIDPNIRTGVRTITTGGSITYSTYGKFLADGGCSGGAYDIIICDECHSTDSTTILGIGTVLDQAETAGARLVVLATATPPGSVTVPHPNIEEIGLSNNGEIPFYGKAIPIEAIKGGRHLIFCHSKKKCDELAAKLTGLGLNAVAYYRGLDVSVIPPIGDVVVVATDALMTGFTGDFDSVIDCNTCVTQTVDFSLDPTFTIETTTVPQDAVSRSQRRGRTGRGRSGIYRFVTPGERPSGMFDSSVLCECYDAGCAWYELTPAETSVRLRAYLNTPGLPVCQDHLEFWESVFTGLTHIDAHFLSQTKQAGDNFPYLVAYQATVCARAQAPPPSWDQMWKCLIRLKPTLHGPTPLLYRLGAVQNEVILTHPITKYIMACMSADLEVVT

Where [7] appears, read: read-out: Anti-HCV protease activity EC50.
Where [8] appears, read: read-out: Anti-HCV protease activity EC90.

As a reminder, the pEC50 is −log10 of the EC50, conventionally taken in molar units. The EC90 is the point of the concentration-response curve where the effect stands at 90%. For `C=C[C@@H]1C[C@]1(NC(=O)[C@@H]1C[C@@H](OC(=O)N2Cc3cccc(F)c3C2)CN1C(=O)[C@@H](NC(=O)OC(C)(C)C)C(C)(C)C)C(=O)NS(=O)(=O)C1CC1` [Compound 10], the “Fold Increase of EC50” value in assay [1] worked out at 1.1; in assay [4], 8.1; in assay [5] (V36M vs Wild Type), 0.7; in assay [6] it was 1.0. Further, the “Fold Increase of EC90” value in assay [1] came to 0.3; in assay [4] it was 21.1; in assay [5] (V36M vs Wild Type), 1.5; in assay [6] it was 1.0. Also, the pEC50 in assay [2] (setting [7]) was 8.26; in assay [3] it was 7.40; in assay [5] (V36M, read-out: Anti-HCV protease activity EC50), 8.47; in assay [6] (setting [7]), 8.31. In addition, the 90% effect concentration (EC90) worked out at 9.5 nM in assay [2] (setting [8]); 630 nM in assay [3] (D168V, read-out: Anti-HCV protease activity EC90); 45.5 nM in assay [5] (V36M, read-out: Anti-HCV protease activity EC90); 30 nM in assay [6] (setting [8]).
